From ChEMBL document CHEMBL5653615 (J Biol Chem, 2013)

Columns and labels:
[1] = target: LIM domain kinase 1 (Homo sapiens) (UniProt P53667); test: Inhibition of human LIMK1 at 500 nM by HotSpot assay relative to control
[2] = target: Cyclin-dependent kinase 5/CDK5 activator 1 (Homo sapiens) (UniProt Q00535+Q15078); test: Inhibition of human CDK5/p25 at 500 nM by HotSpot assay relative to control; format: protein-complex assay
[3] = target: Casein kinase I isoform epsilon (Homo sapiens) (UniProt P49674); test: Inhibition of human CK1epsilon at 500 nM by HotSpot assay relative to control
[4] = target: T1, Serine/threonine-protein kinase TBK1 (Homo sapiens) (UniProt Q9UHD2); test: Inhibition of human TBK1 at 500 nM by HotSpot assay relative to control
T1 sequence (whole entry): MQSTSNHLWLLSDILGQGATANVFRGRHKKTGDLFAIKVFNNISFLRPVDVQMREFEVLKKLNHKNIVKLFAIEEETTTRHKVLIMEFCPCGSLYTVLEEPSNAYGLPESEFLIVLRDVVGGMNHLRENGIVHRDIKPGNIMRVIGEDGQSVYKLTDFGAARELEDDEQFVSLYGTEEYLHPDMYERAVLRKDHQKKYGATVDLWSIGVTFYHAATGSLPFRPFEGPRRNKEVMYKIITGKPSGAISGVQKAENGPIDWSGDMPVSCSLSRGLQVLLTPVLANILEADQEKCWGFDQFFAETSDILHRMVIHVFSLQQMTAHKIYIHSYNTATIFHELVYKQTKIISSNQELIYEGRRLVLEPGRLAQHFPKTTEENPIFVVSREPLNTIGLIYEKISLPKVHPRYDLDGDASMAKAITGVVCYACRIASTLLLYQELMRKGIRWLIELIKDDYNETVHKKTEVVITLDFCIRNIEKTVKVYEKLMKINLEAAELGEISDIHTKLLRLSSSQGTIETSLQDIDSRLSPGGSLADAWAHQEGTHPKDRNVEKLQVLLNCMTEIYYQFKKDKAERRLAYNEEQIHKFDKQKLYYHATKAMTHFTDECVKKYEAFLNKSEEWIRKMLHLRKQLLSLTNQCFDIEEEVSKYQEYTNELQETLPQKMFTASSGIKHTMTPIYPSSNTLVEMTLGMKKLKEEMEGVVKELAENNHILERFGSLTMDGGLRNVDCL

[5] = target: T2, Mitogen-activated protein kinase kinase kinase kinase 2 (Homo sapiens) (UniProt Q12851); test: Inhibition of human GCK at 500 nM by HotSpot assay relative to control
T2 sequence (whole entry): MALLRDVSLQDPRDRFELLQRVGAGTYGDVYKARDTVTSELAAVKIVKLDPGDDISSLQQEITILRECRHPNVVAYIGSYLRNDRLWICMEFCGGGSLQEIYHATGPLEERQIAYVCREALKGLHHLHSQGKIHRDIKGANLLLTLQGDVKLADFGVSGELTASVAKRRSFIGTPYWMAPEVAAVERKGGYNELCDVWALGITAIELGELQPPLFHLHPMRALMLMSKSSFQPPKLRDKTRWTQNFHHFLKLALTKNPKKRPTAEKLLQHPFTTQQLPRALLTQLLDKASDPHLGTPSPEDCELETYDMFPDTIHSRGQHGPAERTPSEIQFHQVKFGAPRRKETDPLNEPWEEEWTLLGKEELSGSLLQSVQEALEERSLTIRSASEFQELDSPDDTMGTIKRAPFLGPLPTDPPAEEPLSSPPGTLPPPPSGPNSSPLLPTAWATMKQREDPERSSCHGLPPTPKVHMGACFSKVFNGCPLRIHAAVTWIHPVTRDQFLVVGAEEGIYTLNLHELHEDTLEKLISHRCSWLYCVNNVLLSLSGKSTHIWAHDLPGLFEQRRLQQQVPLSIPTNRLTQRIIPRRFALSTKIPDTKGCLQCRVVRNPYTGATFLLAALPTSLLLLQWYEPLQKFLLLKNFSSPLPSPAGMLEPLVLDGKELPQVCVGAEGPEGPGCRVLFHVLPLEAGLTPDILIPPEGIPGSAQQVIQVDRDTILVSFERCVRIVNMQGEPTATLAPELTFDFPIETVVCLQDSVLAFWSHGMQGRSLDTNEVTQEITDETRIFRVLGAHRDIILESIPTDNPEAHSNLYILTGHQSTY

[6] = target: Tyrosine-protein kinase Yes (Homo sapiens) (UniProt P07947); test: Inhibition of human YES1 at 500 nM by HotSpot assay relative to control
[7] = target: Serine/threonine-protein kinase MARK2 (Homo sapiens) (UniProt Q7KZI7); test: Inhibition of human PAR-1Ba at 500 nM by HotSpot assay relative to control
[8] = target: T3, Serine/threonine-protein kinase VRK1 (Homo sapiens) (UniProt Q99986); test: Inhibition of human VRK1 at 500 nM by HotSpot assay relative to control
T3 sequence (whole entry): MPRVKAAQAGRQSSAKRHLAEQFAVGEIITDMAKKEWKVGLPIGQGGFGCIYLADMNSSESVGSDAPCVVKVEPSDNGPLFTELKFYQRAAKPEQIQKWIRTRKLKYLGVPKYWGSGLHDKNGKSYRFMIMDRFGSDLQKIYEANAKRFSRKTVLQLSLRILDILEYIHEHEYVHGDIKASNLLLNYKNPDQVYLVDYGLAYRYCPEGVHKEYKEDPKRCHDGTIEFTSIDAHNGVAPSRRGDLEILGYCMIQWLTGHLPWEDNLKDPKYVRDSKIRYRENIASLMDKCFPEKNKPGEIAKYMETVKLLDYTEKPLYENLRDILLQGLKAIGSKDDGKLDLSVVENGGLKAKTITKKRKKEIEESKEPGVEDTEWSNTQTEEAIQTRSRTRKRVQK

Sequence of Cyclin-dependent kinase 5/CDK5 activator 1 (Homo sapiens) (Q00535 whole entry, canonical isoform): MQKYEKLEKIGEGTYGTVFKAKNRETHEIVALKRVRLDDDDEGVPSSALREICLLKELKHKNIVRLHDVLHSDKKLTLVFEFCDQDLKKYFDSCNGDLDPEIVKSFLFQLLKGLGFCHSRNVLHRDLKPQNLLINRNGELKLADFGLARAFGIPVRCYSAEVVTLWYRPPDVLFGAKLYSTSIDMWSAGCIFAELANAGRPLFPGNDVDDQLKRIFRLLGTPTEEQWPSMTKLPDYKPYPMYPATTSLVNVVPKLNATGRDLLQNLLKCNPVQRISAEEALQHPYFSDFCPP
Sequence of Cyclin-dependent kinase 5/CDK5 activator 1 (Homo sapiens) (Q15078 99-307 partner limits assumed): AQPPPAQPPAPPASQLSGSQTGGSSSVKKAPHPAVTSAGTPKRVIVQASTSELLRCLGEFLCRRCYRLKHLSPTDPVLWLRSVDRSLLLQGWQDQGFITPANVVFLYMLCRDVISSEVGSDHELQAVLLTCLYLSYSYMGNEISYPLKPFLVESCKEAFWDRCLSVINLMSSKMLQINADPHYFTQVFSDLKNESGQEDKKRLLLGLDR
Sequence of Casein kinase I isoform epsilon (Homo sapiens) (P49674 whole entry, looked up, canonical isoform): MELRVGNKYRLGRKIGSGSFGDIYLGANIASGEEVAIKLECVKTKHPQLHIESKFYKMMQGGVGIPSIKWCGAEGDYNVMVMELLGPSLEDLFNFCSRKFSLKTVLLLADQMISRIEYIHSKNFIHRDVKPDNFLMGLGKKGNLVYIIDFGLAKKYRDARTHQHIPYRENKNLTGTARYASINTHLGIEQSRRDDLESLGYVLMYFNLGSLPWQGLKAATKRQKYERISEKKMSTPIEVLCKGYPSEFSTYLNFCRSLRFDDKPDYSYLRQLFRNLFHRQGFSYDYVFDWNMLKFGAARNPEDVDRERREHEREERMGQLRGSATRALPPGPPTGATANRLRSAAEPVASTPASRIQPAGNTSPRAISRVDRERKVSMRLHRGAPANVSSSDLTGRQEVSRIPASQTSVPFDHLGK
Sequence of LIM domain kinase 1 (Homo sapiens) (P53667 whole entry, looked up, the tested form may be a part): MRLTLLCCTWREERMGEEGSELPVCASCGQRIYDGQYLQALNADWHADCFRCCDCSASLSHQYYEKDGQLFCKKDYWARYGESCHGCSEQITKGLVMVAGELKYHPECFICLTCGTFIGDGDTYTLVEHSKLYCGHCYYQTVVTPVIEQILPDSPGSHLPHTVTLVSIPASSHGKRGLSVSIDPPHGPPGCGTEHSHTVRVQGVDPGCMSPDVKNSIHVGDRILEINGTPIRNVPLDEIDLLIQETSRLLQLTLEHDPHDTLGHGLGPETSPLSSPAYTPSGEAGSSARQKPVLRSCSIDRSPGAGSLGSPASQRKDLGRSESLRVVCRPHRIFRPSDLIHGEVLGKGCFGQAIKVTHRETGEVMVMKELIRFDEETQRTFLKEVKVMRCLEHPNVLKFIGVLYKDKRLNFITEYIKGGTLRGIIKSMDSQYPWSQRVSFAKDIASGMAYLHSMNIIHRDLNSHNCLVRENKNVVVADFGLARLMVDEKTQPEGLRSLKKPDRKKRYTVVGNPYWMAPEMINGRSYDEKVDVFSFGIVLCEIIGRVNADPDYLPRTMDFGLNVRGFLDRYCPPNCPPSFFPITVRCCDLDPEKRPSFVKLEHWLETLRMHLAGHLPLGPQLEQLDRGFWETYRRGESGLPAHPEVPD
Sequence of Serine/threonine-protein kinase MARK2 (Homo sapiens) (Q7KZI7 whole entry): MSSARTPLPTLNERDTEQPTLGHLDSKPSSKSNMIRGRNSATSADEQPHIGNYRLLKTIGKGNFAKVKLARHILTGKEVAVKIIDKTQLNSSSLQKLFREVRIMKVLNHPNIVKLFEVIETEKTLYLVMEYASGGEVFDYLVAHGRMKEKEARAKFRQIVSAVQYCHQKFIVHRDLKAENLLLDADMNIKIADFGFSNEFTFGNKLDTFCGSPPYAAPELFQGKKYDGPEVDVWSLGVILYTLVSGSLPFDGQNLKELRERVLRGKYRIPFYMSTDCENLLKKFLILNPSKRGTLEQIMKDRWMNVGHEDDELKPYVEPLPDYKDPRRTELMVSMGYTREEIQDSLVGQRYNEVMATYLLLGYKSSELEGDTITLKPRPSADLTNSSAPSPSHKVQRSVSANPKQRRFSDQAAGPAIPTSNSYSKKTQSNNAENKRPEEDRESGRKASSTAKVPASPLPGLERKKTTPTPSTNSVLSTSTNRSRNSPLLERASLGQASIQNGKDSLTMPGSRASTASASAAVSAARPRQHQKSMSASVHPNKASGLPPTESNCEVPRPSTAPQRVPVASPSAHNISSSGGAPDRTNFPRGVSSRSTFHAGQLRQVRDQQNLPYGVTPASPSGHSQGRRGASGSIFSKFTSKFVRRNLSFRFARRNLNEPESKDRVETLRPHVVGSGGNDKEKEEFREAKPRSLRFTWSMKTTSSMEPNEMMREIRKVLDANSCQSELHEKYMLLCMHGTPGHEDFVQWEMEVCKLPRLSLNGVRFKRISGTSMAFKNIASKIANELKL
Sequence of Tyrosine-protein kinase Yes (Homo sapiens) (P07947 2-543 limits assumed): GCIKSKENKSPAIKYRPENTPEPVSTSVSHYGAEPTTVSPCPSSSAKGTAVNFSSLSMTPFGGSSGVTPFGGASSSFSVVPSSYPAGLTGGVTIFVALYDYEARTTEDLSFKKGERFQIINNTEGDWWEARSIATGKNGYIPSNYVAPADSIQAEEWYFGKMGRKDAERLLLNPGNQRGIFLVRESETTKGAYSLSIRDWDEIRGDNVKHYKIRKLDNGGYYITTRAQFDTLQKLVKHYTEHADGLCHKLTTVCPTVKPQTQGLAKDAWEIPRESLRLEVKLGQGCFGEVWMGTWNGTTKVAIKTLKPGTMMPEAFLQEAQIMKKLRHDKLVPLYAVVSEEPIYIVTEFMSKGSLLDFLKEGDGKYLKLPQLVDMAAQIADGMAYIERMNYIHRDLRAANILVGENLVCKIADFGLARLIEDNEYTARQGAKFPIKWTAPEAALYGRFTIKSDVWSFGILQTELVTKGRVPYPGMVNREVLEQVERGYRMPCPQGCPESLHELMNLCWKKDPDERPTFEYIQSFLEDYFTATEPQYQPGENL

## Nc1n[nH]c2nnc(-c3c(-c4ccccc4)nn4ccccc34)cc12
[1]
  inhibition: 1.81%
[2]
  inhibition: -0.57%
[3]
  inhibition: 19.1%
[4]
  inhibition: -0.37%
[5]
  inhibition: 1.42%
[6]
  inhibition: 8.91%
[7]
  inhibition: -4.05%
[8]
  inhibition: 7.83%

## Oc1n[nH]c2nnc(-c3c(-c4ccccc4)nn4ccccc34)cc12
[1]
  inhibition: -1.82%
[2]
  inhibition: 1.29%
[3]
  inhibition: 0.54%
[4]
  inhibition: -4.04%
[5]
  inhibition: -5.76%
[6]
  inhibition: 4.49%
[7]
  inhibition: -4.11%
[8]
  inhibition: 0.57%
